{
  "source": "ChEMBL document CHEMBL1201862",
  "about": "“PubChem BioAssay data set” (2004)",
  "test_in_all_cases": "NCI tumour cell line growth inhibition, 48 h",
  "key": {"[1]": {"tested_on": "BT-549"}, "[2]": {"tested_on": "CCRF-CEM"}, "[3]": {"tested_on": "COLO 205"}, "[4]": {"tested_on": "HCT-15"}, "[5]": {"tested_on": "HOP-62"}, "[6]": {"tested_on": "Hs-578T"}, "[7]": {"tested_on": "IGROV-1"}, "[8]": {"tested_on": "MDA-MB-435"}, "[9]": {"tested_on": "MDA-N"}, "[10]": {"tested_on": "Malme-3M"}, "[11]": {"tested_on": "NCI-H23"}, "[12]": {"tested_on": "NCI-H460"}, "[13]": {"tested_on": "PC-3"}, "[14]": {"tested_on": "RPMI-8226"}, "[15]": {"tested_on": "SF-268"}, "[16]": {"tested_on": "SF-539"}, "[17]": {"tested_on": "SK-OV-3"}, "[18]": {"tested_on": "SN12C"}, "[19]": {"tested_on": "TK-10"}, "[20]": {"tested_on": "UACC-62"}},
  "note": "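In this assay, cells in 96-well plates receive the compound at five concentrations for 48 hours. Endpoints are linearly interpolated between the surrounding concentrations. Abbreviation: GI50, concentration required for 50% inhibition of growth.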 Active and inactive are the calls of the source. Cut-off read from the data, not from the text of the source: active = GI50 up to about 1.1 µM and inactive = higher.",
  "data": [
    {"compound": "O=c1[nH]nc(-c2ccccc2)c2[nH]c3c(c12)Cc1ccccc1-3", "values": [
      {"measurement": "GI50", "setting": "[1]", "result": "21.7 µM (inactive)"},
      {"measurement": "GI50", "setting": "[2]", "result": "3.92 µM (inactive)"},
      {"measurement": "GI50", "setting": "[3]", "result": "1.61 µM (inactive)"},
      {"measurement": "GI50", "setting": "[4]", "result": 0.374, "unit": "µM"},
      {"measurement": "GI50", "setting": "[5]", "result": "9.38 µM (inactive)"},
      {"measurement": "GI50", "setting": "[6]", "result": "5.46 µM (inactive)"},
      {"measurement": "GI50", "setting": "[7]", "result": "0.723 µM (active)"},
      {"measurement": "GI50", "setting": "[8]", "result": "0.386 µM (active)"},
      {"measurement": "GI50", "setting": "[9]", "result": "0.38 µM (active)"},
      {"measurement": "GI50", "setting": "[10]", "result": "1.08 µM (active)"},
      {"measurement": "GI50", "setting": "[11]", "result": "> 26.5 µM (inactive)"},
      {"measurement": "GI50", "setting": "[12]", "result": "2.11 µM (inactive)"},
      {"measurement": "GI50", "setting": "[13]", "result": "4.47 µM (inactive)"},
      {"measurement": "GI50", "setting": "[14]", "result": "2.37 µM (inactive)"},
      {"measurement": "GI50", "setting": "[15]", "result": "2.87 µM (inactive)"},
      {"measurement": "GI50", "setting": "[16]", "result": "2.34 µM (inactive)"},
      {"measurement": "GI50", "setting": "[17]", "result": "6.68 µM (inactive)"},
      {"measurement": "GI50", "setting": "[18]", "result": "2.32 µM (inactive)"},
      {"measurement": "GI50", "setting": "[19]", "result": "7.59 µM (inactive)"},
      {"measurement": "GI50", "setting": "[20]", "result": "0.299 µM (active)"}
    ]},
    {"compound": "CC(C)c1ccc(/C=C2\\N=C(c3ccc([N+](=O)[O-])cc3)OC2=O)cc1", "values": [
      {"measurement": "GI50", "setting": "[1]", "result": "> 100 µM (inactive)"},
      {"measurement": "GI50", "setting": "[2]", "result": "55.7 µM (inactive)"},
      {"measurement": "GI50", "setting": "[3]", "result": "> 100 µM (inactive)"},
      {"measurement": "GI50", "setting": "[4]", "result": "> 100", "unit": "µM"},
      {"measurement": "GI50", "setting": "[5]", "result": "> 100 µM (inactive)"},
      {"measurement": "GI50", "setting": "[6]", "result": "> 100 µM (inactive)"},
      {"measurement": "GI50", "setting": "[7]", "result": "> 100 µM (inactive)"},
      {"measurement": "GI50", "setting": "[8]", "result": "> 100 µM (inactive)"},
      {"measurement": "GI50", "setting": "[9]", "result": "> 100 µM (inactive)"},
      {"measurement": "GI50", "setting": "[10]", "result": "60.3 µM (inactive)"},
      {"measurement": "GI50", "setting": "[11]", "result": "> 100 µM (inactive)"},
      {"measurement": "GI50", "setting": "[12]", "result": "> 100 µM (inactive)"},
      {"measurement": "GI50", "setting": "[13]", "result": "> 100 µM (inactive)"},
      {"measurement": "GI50", "setting": "[14]", "result": "> 100 µM (inactive)"},
      {"measurement": "GI50", "setting": "[15]", "result": "> 100 µM (inactive)"},
      {"measurement": "GI50", "setting": "[16]", "result": "> 100 µM (inactive)"},
      {"measurement": "GI50", "setting": "[17]", "result": "> 100 µM (inactive)"},
      {"measurement": "GI50", "setting": "[18]", "result": "> 100 µM (inactive)"},
      {"measurement": "GI50", "setting": "[19]", "result": "> 100 µM (inactive)"},
      {"measurement": "GI50", "setting": "[20]", "result": "> 100 µM (inactive)"}
    ]},
    {"compound": "O=C(O)CCC(NC(=O)c1ccc(Nc2cnc3ccc(C(F)(F)F)cc3n2)cc1)C(=O)O", "note": "(stereo not given)", "values": [
      {"measurement": "GI50", "setting": "[1]", "result": "> 100 µM (inactive)"},
      {"measurement": "GI50", "setting": "[2]", "result": "> 100 µM (inactive)"},
      {"measurement": "GI50", "setting": "[3]", "result": "> 100 µM (inactive)"},
      {"measurement": "GI50", "setting": "[4]", "result": "> 100", "unit": "µM"},
      {"measurement": "GI50", "setting": "[5]", "result": "> 100 µM (inactive)"},
      {"measurement": "GI50", "setting": "[6]", "result": "45.9 µM (inactive)"},
      {"measurement": "GI50", "setting": "[7]", "result": "> 100 µM (inactive)"},
      {"measurement": "GI50", "setting": "[8]", "result": "> 100 µM (inactive)"},
      {"measurement": "GI50", "setting": "[9]", "result": "> 100 µM (inactive)"},
      {"measurement": "GI50", "setting": "[10]", "result": "> 100 µM (inactive)"},
      {"measurement": "GI50", "setting": "[11]", "result": "> 100 µM (inactive)"},
      {"measurement": "GI50", "setting": "[12]", "result": "> 100 µM (inactive)"},
      {"measurement": "GI50", "setting": "[13]", "result": "> 100 µM (inactive)"},
      {"measurement": "GI50", "setting": "[14]", "result": "> 100 µM (inactive)"},
      {"measurement": "GI50", "setting": "[15]", "result": "> 100 µM (inactive)"},
      {"measurement": "GI50", "setting": "[16]", "result": "> 100 µM (inactive)"},
      {"measurement": "GI50", "setting": "[17]", "result": "> 100 µM (inactive)"},
      {"measurement": "GI50", "setting": "[18]", "result": "> 100 µM (inactive)"},
      {"measurement": "GI50", "setting": "[19]", "result": "> 100 µM (inactive)"},
      {"measurement": "GI50", "setting": "[20]", "result": "> 100 µM (inactive)"}
    ]},
    {"compound": "O=C(O)C1(Cc2ccc3c(c2)CCC3)Cc2ccccc2C1=O", "note": "(stereo not given)", "values": [
      {"measurement": "GI50", "setting": "[1]", "result": "37.8 µM (inactive)"},
      {"measurement": "GI50", "setting": "[2]", "result": "35.5 µM (inactive)"},
      {"measurement": "GI50", "setting": "[3]", "result": "52.6 µM (inactive)"},
      {"measurement": "GI50", "setting": "[4]", "result": 34.8, "unit": "µM"},
      {"measurement": "GI50", "setting": "[5]", "result": "57.8 µM (inactive)"},
      {"measurement": "GI50", "setting": "[6]", "result": "47.4 µM (inactive)"},
      {"measurement": "GI50", "setting": "[7]", "result": "57.8 µM (inactive)"},
      {"measurement": "GI50", "setting": "[8]", "result": "> 100 µM (inactive)"},
      {"measurement": "GI50", "setting": "[9]", "result": "> 100 µM (inactive)"},
      {"measurement": "GI50", "setting": "[10]", "result": "> 100 µM (inactive)"},
      {"measurement": "GI50", "setting": "[11]", "result": "46.2 µM (inactive)"},
      {"measurement": "GI50", "setting": "[12]", "result": "50.1 µM (inactive)"},
      {"measurement": "GI50", "setting": "[13]", "result": "46.7 µM (inactive)"},
      {"measurement": "GI50", "setting": "[14]", "result": "35.8 µM (inactive)"},
      {"measurement": "GI50", "setting": "[15]", "result": "63.8 µM (inactive)"},
      {"measurement": "GI50", "setting": "[16]", "result": "49.1 µM (inactive)"},
      {"measurement": "GI50", "setting": "[17]", "result": "50.6 µM (inactive)"},
      {"measurement": "GI50", "setting": "[18]", "result": "63.7 µM (inactive)"},
      {"measurement": "GI50", "setting": "[19]", "result": "> 100 µM (inactive)"},
      {"measurement": "GI50", "setting": "[20]", "result": "57.9 µM (inactive)"}
    ]},
    {"compound": "O=C1C=CC2CCC1C2", "note": "(stereo not given)", "values": [
      {"measurement": "GI50", "setting": "[1]", "result": "21.4 µM (inactive)"},
      {"measurement": "GI50", "setting": "[2]", "result": "28.4 µM (inactive)"},
      {"measurement": "GI50", "setting": "[3]", "result": "33.7 µM (inactive)"},
      {"measurement": "GI50", "setting": "[4]", "result": 18.2, "unit": "µM"},
      {"measurement": "GI50", "setting": "[5]", "result": "43.1 µM (inactive)"},
      {"measurement": "GI50", "setting": "[6]", "result": "28.6 µM (inactive)"},
      {"measurement": "GI50", "setting": "[7]", "result": "53.3 µM (inactive)"},
      {"measurement": "GI50", "setting": "[8]", "result": "17.2 µM (inactive)"},
      {"measurement": "GI50", "setting": "[9]", "result": "25 µM (inactive)"},
      {"measurement": "GI50", "setting": "[10]", "result": "14.6 µM (inactive)"},
      {"measurement": "GI50", "setting": "[11]", "result": "20.6 µM (inactive)"},
      {"measurement": "GI50", "setting": "[12]", "result": "30.6 µM (inactive)"},
      {"measurement": "GI50", "setting": "[13]", "result": "45 µM (inactive)"},
      {"measurement": "GI50", "setting": "[14]", "result": "34 µM (inactive)"},
      {"measurement": "GI50", "setting": "[15]", "result": "20.2 µM (inactive)"},
      {"measurement": "GI50", "setting": "[16]", "result": "34.7 µM (inactive)"},
      {"measurement": "GI50", "setting": "[17]", "result": "24.4 µM (inactive)"},
      {"measurement": "GI50", "setting": "[18]", "result": "30.4 µM (inactive)"},
      {"measurement": "GI50", "setting": "[19]", "result": "66.1 µM (inactive)"},
      {"measurement": "GI50", "setting": "[20]", "result": "19.2 µM (inactive)"}
    ]}
  ]
}
